Results reported in publication PMC5480602 (Slas Discovery, 2017).

Key:
α3β4 nAChR = α3β4 nAChR (Homo sapiens, UniProt P30926+P32297); assay: cell-based
α4β2 nAChR = α4β2 nAChR (Homo sapiens, UniProt P17787+P43681); assay: cell-based
α3β4α5 nAChR = α3β4α5 nAChR (Homo sapiens, UniProt P30532+P30926+P32297); assay: cell-based
[1] = read-out: plasma levels (Cmax); in patients; cited from earlier work
[2] = cited from earlier work
[3] = cited from earlier work; remark: listed apart in the source

Sequence of α4β2 nAChR (P43681 29-627 limits assumed): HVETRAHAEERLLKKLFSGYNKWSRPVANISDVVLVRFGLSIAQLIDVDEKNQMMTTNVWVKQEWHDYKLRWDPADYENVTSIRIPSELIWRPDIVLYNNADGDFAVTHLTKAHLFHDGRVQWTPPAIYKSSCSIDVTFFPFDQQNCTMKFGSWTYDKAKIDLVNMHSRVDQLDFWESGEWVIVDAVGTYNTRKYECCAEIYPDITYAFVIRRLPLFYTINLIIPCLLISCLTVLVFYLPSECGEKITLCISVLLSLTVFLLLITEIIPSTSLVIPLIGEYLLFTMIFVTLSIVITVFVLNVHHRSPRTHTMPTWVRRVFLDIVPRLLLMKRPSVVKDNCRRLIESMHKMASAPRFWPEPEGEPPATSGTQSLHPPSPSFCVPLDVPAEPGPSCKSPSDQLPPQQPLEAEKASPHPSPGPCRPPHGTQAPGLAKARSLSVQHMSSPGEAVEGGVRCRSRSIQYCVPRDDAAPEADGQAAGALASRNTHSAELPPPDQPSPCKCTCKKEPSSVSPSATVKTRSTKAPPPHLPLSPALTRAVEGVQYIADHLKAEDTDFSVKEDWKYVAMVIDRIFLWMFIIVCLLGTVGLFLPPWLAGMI
Sequence of α4β2 nAChR (P17787 26-502): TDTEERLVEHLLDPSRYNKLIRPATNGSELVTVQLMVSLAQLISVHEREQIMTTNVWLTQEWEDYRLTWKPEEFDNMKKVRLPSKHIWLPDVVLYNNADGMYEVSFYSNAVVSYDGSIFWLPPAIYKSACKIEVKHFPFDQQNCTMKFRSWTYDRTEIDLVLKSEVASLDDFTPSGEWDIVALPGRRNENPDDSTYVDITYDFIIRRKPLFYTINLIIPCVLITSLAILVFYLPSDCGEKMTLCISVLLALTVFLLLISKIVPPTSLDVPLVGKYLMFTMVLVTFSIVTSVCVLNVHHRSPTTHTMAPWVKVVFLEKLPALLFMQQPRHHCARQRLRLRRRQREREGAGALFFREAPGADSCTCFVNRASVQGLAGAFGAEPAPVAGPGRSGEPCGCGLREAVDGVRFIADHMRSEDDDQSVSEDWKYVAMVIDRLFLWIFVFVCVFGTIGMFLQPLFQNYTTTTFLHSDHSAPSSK
Sequence of α3β4 nAChR (P32297 32-505): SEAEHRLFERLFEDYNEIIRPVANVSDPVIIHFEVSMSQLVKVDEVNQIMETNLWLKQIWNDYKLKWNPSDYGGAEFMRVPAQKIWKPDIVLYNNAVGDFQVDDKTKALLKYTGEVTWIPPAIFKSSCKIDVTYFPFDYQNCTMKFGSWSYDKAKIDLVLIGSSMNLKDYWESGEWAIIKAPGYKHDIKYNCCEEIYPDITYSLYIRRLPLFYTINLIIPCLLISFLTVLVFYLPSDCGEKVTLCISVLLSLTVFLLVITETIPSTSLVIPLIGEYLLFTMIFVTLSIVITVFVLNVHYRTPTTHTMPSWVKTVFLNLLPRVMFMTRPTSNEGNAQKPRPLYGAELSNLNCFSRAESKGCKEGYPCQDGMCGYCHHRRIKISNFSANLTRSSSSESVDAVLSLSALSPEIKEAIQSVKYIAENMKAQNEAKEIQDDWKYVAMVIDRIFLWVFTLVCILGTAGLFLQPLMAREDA
Sequence of α3β4 nAChR (P30926 22-498): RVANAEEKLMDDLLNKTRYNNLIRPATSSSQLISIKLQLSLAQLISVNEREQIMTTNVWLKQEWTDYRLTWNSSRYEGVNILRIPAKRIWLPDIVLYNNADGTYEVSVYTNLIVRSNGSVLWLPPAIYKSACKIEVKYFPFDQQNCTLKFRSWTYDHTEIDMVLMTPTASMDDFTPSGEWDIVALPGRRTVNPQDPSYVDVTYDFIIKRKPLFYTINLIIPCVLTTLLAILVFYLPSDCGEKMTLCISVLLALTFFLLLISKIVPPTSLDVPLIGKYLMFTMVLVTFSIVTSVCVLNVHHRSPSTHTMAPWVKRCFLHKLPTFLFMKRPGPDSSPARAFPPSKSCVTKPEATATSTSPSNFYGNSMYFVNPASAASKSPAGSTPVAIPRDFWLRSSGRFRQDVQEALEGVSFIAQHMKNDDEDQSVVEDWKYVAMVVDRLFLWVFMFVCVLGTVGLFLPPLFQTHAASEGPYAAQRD
Sequence of α3β4α5 nAChR (P32297 32-505): as the sequence (P32297 32-505) above
Sequence of α3β4α5 nAChR (P30926 22-498): as the sequence (P30926 22-498) above
Sequence of α3β4α5 nAChR (P30532 23-468): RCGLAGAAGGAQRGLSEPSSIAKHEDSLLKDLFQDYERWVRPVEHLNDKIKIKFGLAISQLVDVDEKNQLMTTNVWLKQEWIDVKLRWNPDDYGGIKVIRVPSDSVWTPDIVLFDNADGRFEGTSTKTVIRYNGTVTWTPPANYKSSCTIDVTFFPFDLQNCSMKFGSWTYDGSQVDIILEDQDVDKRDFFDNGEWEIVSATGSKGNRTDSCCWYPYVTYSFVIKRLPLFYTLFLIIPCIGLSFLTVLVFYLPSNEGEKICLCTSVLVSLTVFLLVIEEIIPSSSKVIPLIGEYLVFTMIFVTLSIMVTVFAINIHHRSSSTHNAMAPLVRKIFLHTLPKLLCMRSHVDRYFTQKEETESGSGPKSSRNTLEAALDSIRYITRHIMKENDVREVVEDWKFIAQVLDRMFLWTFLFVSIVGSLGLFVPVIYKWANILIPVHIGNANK

Row | SMILES | IC50 (α3β4 nAChR) | IC50 (α4β2 nAChR) | IC50 (α3β4α5 nAChR) | Cmax [1] | efficiency of crossing the blood-brain barrier [2] | plasma concentrations [3] | efficiency in crossing the blood-brain barrier [2]
1 | NC1=NCC2c3ccccc3Cc3ccccc3N12 (stereo not shown) [epinastine] | ≥ 1000 nM | ≥ 1000 nM | ≥ 1000 nM | ~100 nM | ~ 10% | – | –
2 | N=C(N)c1ccc(OCCCCCOc2ccc(C(=N)N)cc2)cc1 [pentamidine] | – | – | – | – | – | ~ 1.8 µM | ~ 0.04%
